Tests used:
[1] = test system: 9L; assay: Intracranial local drug delivery by polymer implant in rat glioma model, median survival (Table 1 summary); details: in vivo
[2] = test system: 9L, F98, U373, H80, U87, D324 cell lines; assay: In vitro efficacy of paclitaxel on several cell lines (clonogenic assay); format: cell-based, rat and human
[3] = Intracerebral distribution of paclitaxel from polymer implant; format: in vivo, rat; details: for time course of paclitaxel brain concentration: 30 days after implant
Procedure: Animals. Male Fischer 344 rats weighing 200-225 g were obtained from Harlan Sprague-Dawley, Inc. (Indianapolis, Ind.), kept in standard animal facilities with 4 rats/cage, and given free access to Certified Rodent Chow No. 5002 (Ralston Purina Co., St. Louis, Mo.) and to Baltimore city water.
Preparation of the paclitaxel loaded polymer. Polymer discs containing labeled paclitaxel were prepared as above, except that a small amount of ^3 H-labeled paclitaxel (specific activity, 19.3 Ci/mmol; National Cancer Institute) in toluene was added to the initial solution of polymer and paclitaxel in methylene chloride. The polymer-paclitaxel mixture was then dried in a vacuum desiccator and pressed into discs using a table vise calibrated to form a pellet.
Paclitaxel-polymer implantation. The procedure for polymer implantation in the rat has been described by Tamargo, R. J., et al. (Cancer Res. 53:329-333 (1993)), the teachings of which are incorporated herein by reference. Briefly, the heads of anesthetized rats were shaved and prepared aseptically. The skull was exposed with a midline incision, and a 3-mm burr hole was drilled through the skull 5 mm posterior and 3 mm lateral to the bregma. The dura was incised with a microsurgical knife (Edward Weck and Co., Inc., Research Triangle Park, N.C.), and the polymer disc was inserted into the brain parenchyma. The wound was irrigated and closed with surgical clips (Clay Adams, Parsippany, N.J.).
Protocol for intracerebral drug distribution. Twelve rats were given implants of 10-mg discs containing 40% paclitaxel by weight and 0.60 μCi/mg disc weight. At 3, 9, 17, and 30 days postimplantation, groups of 3 rats each were euthanized. The skull was opened and the brain exposed. The polymer disc was removed from the brain in situ. The brain was then removed from the skull and snap frozen in heptane over dry ice. The brain was sectioned in the midline into implant and contralateral hemispheres. Each hemisphere was sectioned coronally at 2-mm intervals by using a tissue blade grid consisting of individual tissue blades arranged in parallel separated by 2-mm metal spacers. Each section was weighed, dissolved in 15 ml Solvable homogenizing solution (New England Nuclear Dupont, Boston, Mass.), and combined with 15 ml Atomlight™ scintillation mixture (New England Nuclear Dupont). The brain samples were counted on a Beckman liquid scintillation counter. Raw counts were corrected for quenching and converted to dpm using a linear regression based on a series of quenched standards.
To convert dpm/mg tissue to paclitaxel concentration, a second experiment was performed. Four rats were given implants of 40% loaded polymer discs with 0.39 μCi/mg. One rat each was sacrificed at 3, 9, 17, and 30 days. The brain was removed and frozen as above. A 2-mm coronal section was taken through the site of the polymer implant. The section was minced and extracted with ethanol. The ethanol fraction was divided in two. […] The Rf value for the paclitaxel was determined and each lane cut into 4 sections: A. origin; B, origin to paclitaxel spot; C. paclitaxel spot; and D. paclitaxel spot to solvent front. The chromatography strips were combined with Atomlight™ mixture and counted in a liquid scintillation counter. […] To determine the efficiency of extraction, the remaining half of the original extract was combined with mixture and counted, and the residual brain tissue was homogenized and counted as above. […]

[4] = test system: F98; format: cell-based; details: Rattus norvegicus, continuous 6-8 days exposure, read-out: LD90 (the source's name)
[5] = test system: intracranial gliomas; details: i.p.; cited from earlier work
[6] = test system: ovarian, breast, lung, and prostatic cancer and melanoma; details: cited from earlier work
[7] = maintenance of sufficient systemic levels; cited from earlier work

CC(=O)O[C@H]1C(=O)[C@@]2(C)[C@H]([C@H](OC(=O)c3ccccc3)[C@]3(O)C[C@H](OC(=O)[C@H](O)[C@@H](NC(=O)c4ccccc4)c4ccccc4)C(C)=C1C3(C)C)[C@]1(OC(C)=O)CO[C@@H]1C[C@@H]2O [paclitaxel]
% increase survival [1]: 215%
Median survival in days, Rx group [1]: 61.5
factor of potency increase in vitro ([2]; exposure for more than 24 h): two to four
concentration at which log cell kill occurred ([2]; rat and human brain-tumor cell lines): nanomolecular concentrations
amount required for log cell kill in rat lines relative to human lines ([2]; rat lines (9L, F98) vs human lines (U87, U373, H80), 6-8 days): four to ten
time course of paclitaxel brain concentration [3]: still constant or rising throughout the rat brain 30 days after implant
time course of paclitaxel brain concentration ([3]; listed as Paclitaxel): increased slightly during the 30 days
duration of elevated paclitaxel concentration in brain ([3]; after implantation in the rat brain): at least one month
raw counts tissue bound ([3]; brain, each time point): 31±3%
raw counts representing parent drug ([3]; brain, each time point, ± standard error of the mean): approximately 56±3%
IC90 [4]: 25 nM
increased survival from systemic intraperitoneal injections [5]: no increased survival
concentrations cytotoxic in vitro [6]: nanomolecular concentrations
systemic toxicity [7]: severe, in some cases "life-threatening" toxicity

From patent USRE37410E, “Controlled local delivery of chemotherapeutic agents for treating solid tumors” (priority 1999, dated 2001)
